Values of other authors as cited in article PMC8197769 (Progress in retinal and eye research, 2020).
Where two headings read alike, the source gives them in different places.

Columns and labels:
[1] = tested on: patients with geographic atrophy; settings: intravitreal; ref Gensler et al., 2018
[2] = tested on: patients with geographic atrophy; settings: ref Jaffe et al., 2020
drusen = settings: intravitreal injection, preliminary studies; ref Chi et al., 2010
[3] = tested on: patients with geographic atrophy; settings: ref Holz et al., 2018
[4] = tested on: patients with paroxysmal nocturnal hemoglobinuria
[5] = tested on: patients with geographic atrophy; settings: ref Liao et al., 2020
[6] = intravitreal injection, phase I; ref NCT01255462
[7] = tested on: patients with geographic atrophy; settings: 5 mg monthly vs. sham, 150 patients; ref NCT01527500

**Q.** With `CO[C@H]1C[C@@H]2CC[C@@H](C)[C@@](O)(O2)C(=O)C(=O)N2CCCC[C@H]2C(=O)O[C@H]([C@H](C)C[C@@H]2CC[C@@H](O)[C@H](OC)C2)CC(=O)[C@H](C)/C=C(\C)[C@@H](O)[C@@H](OC)C(=O)[C@H](C)C[C@H](C)/C=C/C=C/C=C/1C` [sirolimus] as the molecule, how does the “efficacy for GA” value [1] read?
**A.** The value was “did not suggest efficacy for GA”.

**Q.** Which endophthalmitis [2] does the source give for avacincaptad pegol here?
**A.** Its endophthalmitis is “no cases of endophthalmitis”.

**Q.** Which effect on drusen (drusen) does the source give for compstatin here?
**A.** Its effect on drusen is “may cause drusen regression”.

**Q.** For “lampalizumab: fragment of humanized monoclonal antibody, inhibits Factor D”, which “phase III outcome for GA” value [3] is on record?
**A.** Its value is “negative results”.

**Q.** With pegcetacoplan as the molecule, how does the “safety during prolonged and systemic clinical intervention” value ([4]; human, in vivo) read?
**A.** Its value is “acceptable safety profiles”.

**Q.** What about the “efficacy in paroxysmal nocturnal hemoglobinuria” value ([4]; phase III, ref Apellis Pharmaceuticals, 2020, Castro et al.) of the same molecule?
**A.** The value was “showed efficacy”.

**Q.** And the “investigator-determined conversion to exudative AMD” value ([5]; every other month group (sham 1.2%))?
**A.** The value was 8.9%.

**Q.** And the “investigator-determined conversion to exudative AMD” value ([5]; monthly group (sham 1.2%))?
**A.** The value was 20.9%.

B1: tesidolumab: IgG1 antibody that prevents C5 cleavage (antibody, chains of the INN, looked up, V domains shown)
VH: EVQLVQSGAEVKKPGSSVKVSCKASGGTFSSYAISWVRQAPGQGLEWMGGIGPFFGTANYAQKFQGRVTITADESTSTAYMELSSLRSEDTAVYYCARDTPYFDYWGQGTLVTVSS
VL: SYELTQPLSVSVALGQTARITCSGDSIPNYYVYWYQQKPGQAPVLVIYDDSNRPSGIPERFSGSNSGNTATLTISRAQAGDEADYYCQSFDSSLNAEVFGGGTKLTVL
**Q.** With B1 as the molecule, how does the safety [6] read?
**A.** The safety was “No significant safety events were seen”.

**Q.** What about the “benefit for GA or vision” value [7] of the same molecule?
**A.** The value was “No benefit”.
